Results reported in the supplement of paper PMC8671470.

What follows are compounds tested on KU-812 (assay: cell viability (% survival relative to DMSO control, bortezomib = 0%); higher = less cytotoxic). Details: 1000 nM; 72 h.
Summary of the method: (§1)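 Percent survival figures are means of duplicate wells. They were obtained by CellTiter-Glo luminescence after 10 AML and 5 CML cell lines spent 72 h at 37 °C with 5% CO2 in 384-well plates with compounds at 1, 10, 100, 1000 or 10000 nM. Vehicle was set to 100% and a 10 µM positive control to 0%.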
`NCc1ccc(S(N)(=O)=O)cc1` [4-Homosulfanilamide] was tested, and the cell viability was 100%.
In the case of `Oc1ncc(F)c(O)n1` [5-fluorouracil], the cell viability is reported as 88%.
`NCc1ccc(-c2cccnc2)s1` [(5-Pyrid-3-YLTHIEN-2-YL)METHYLAMINE] was tested, and the cell viability was 104%.
`CC(=O)N[C@@H](CS)C(=O)O` [Acetylcysteine] showed a cell viability of 97.1%.
With `CCCCC/C=C\C/C=C\C/C=C\C/C=C\CCCC(=O)C(F)(F)F` [Arachidonyl trifluoromethyl ketone] the cell viability was 68.5%.
Compound `O=[As]O[As]=O` (centres undefined) [Arsenic trioxide] has a cell viability of 93.4%.

Same assay, conditions: 10000 nM; 72 h
`CC(=O)N1CCN(c2ccc(OC[C@@H]3CO[C@@](Cn4ccnc4)(c4ccc(Cl)cc4Cl)O3)cc2)CC1` (racemic) [Ketoconazole] gave a cell viability of 70.5%.
`CCC(CC#N)OC(=O)N[C@@H](C)c1cccc(NC(=O)Nc2ccc(-c3cnco3)c(OC)c2)c1` (stereo in doubt) [AVN-944] was tested, and the cell viability was 3.66%.
Work on `OC[C@H]1OC(O)C[C@@H](O)[C@@H]1O` (some centres undefined) [2-deoxyglucose] yielded a cell viability of 95.5%.
In the case of `O=C(C(=O)c1ccc(Br)cc1)c1ccc(Br)cc1` [4,4'-Dibromobenzil], the cell viability is reported as 91.5%.
With `NS(=O)(=O)c1ccc(NC(=O)Cc2ccccc2)cc1` [4-(2-Phenylacetamido)Benzenesulfonamide] the cell viability was 107%.
`NCc1ccc(S(N)(=O)=O)cc1` [4-Homosulfanilamide] was tested, and the cell viability was 98.1%.
With `Oc1ncc(F)c(O)n1` [5-fluorouracil] the cell viability was 66.6%.
For `NCc1ccc(-c2cccnc2)s1` [(5-Pyrid-3-YLTHIEN-2-YL)METHYLAMINE], the cell viability was 85.1%.
`CC(=O)N[C@@H](CS)C(=O)O` [Acetylcysteine] showed a cell viability of 97%.
For `CCCCC/C=C\C/C=C\C/C=C\C/C=C\CCCC(=O)C(F)(F)F` [Arachidonyl trifluoromethyl ketone], the cell viability was 61.7%.
With `O=[As]O[As]=O` (centres undefined) [Arsenic trioxide] the cell viability was 61.5%.

What follows are compounds tested on K-562 in the same assay as above. Details: 1 nM; 72 h.
Summary of the method: as §1
`CC(=O)N1CCN(c2ccc(OC[C@@H]3CO[C@@](Cn4ccnc4)(c4ccc(Cl)cc4Cl)O3)cc2)CC1` (racemic) [Ketoconazole] was tested, and the cell viability was 98.6%.
Compound `CCC(CC#N)OC(=O)N[C@@H](C)c1cccc(NC(=O)Nc2ccc(-c3cnco3)c(OC)c2)c1` (stereo in doubt) [AVN-944] has a cell viability of 103%.
In the case of `OC[C@H]1OC(O)C[C@@H](O)[C@@H]1O` (some centres undefined) [2-deoxyglucose], the cell viability is reported as 107%.
`O=C(C(=O)c1ccc(Br)cc1)c1ccc(Br)cc1` [4,4'-Dibromobenzil] was tested, and the cell viability was 101%.
For `NS(=O)(=O)c1ccc(NC(=O)Cc2ccccc2)cc1` [4-(2-Phenylacetamido)Benzenesulfonamide], the cell viability was 100%.
`NCc1ccc(S(N)(=O)=O)cc1` [4-Homosulfanilamide] was tested, and the cell viability was 85.1%.
For `Oc1ncc(F)c(O)n1` [5-fluorouracil], the cell viability was 101%.
`NCc1ccc(-c2cccnc2)s1` [(5-Pyrid-3-YLTHIEN-2-YL)METHYLAMINE] gave a cell viability of 92.7%.
`CC(=O)N[C@@H](CS)C(=O)O` [Acetylcysteine] was tested, and the cell viability was 106%.
Compound `CCCCC/C=C\C/C=C\C/C=C\C/C=C\CCCC(=O)C(F)(F)F` [Arachidonyl trifluoromethyl ketone] has a cell viability of 101%.
For `O=[As]O[As]=O` (centres undefined) [Arsenic trioxide], the cell viability was 91.1%.

Same assay, conditions: 10 nM; 72 h
For `CC(=O)N1CCN(c2ccc(OC[C@@H]3CO[C@@](Cn4ccnc4)(c4ccc(Cl)cc4Cl)O3)cc2)CC1` (racemic) [Ketoconazole], the cell viability was 95.2%.
Compound `CCC(CC#N)OC(=O)N[C@@H](C)c1cccc(NC(=O)Nc2ccc(-c3cnco3)c(OC)c2)c1` (stereo in doubt) [AVN-944] has a cell viability of 96.9%.
`OC[C@H]1OC(O)C[C@@H](O)[C@@H]1O` (some centres undefined) [2-deoxyglucose] was tested, and the cell viability was 117%.
For `O=C(C(=O)c1ccc(Br)cc1)c1ccc(Br)cc1` [4,4'-Dibromobenzil], the cell viability was 90.3%.
Compound `NS(=O)(=O)c1ccc(NC(=O)Cc2ccccc2)cc1` [4-(2-Phenylacetamido)Benzenesulfonamide] has a cell viability of 99.4%.
Work on `NCc1ccc(S(N)(=O)=O)cc1` [4-Homosulfanilamide] yielded a cell viability of 90%.
In the case of `Oc1ncc(F)c(O)n1` [5-fluorouracil], the cell viability is reported as 114%.
`NCc1ccc(-c2cccnc2)s1` [(5-Pyrid-3-YLTHIEN-2-YL)METHYLAMINE] showed a cell viability of 122%.
In the case of `CC(=O)N[C@@H](CS)C(=O)O` [Acetylcysteine], the cell viability is reported as 97.9%.
Work on `CCCCC/C=C\C/C=C\C/C=C\C/C=C\CCCC(=O)C(F)(F)F` [Arachidonyl trifluoromethyl ketone] yielded a cell viability of 96.1%.
`O=[As]O[As]=O` (centres undefined) [Arsenic trioxide] was tested, and the cell viability was 93.8%.

Same assay, conditions: 100 nM; 72 h
For `CC(=O)N1CCN(c2ccc(OC[C@@H]3CO[C@@](Cn4ccnc4)(c4ccc(Cl)cc4Cl)O3)cc2)CC1` (racemic) [Ketoconazole], the cell viability was 97.3%.
Work on `CCC(CC#N)OC(=O)N[C@@H](C)c1cccc(NC(=O)Nc2ccc(-c3cnco3)c(OC)c2)c1` (stereo in doubt) [AVN-944] yielded a cell viability of 30.3%.
`OC[C@H]1OC(O)C[C@@H](O)[C@@H]1O` (some centres undefined) [2-deoxyglucose] was tested, and the cell viability was 94.2%.
In the case of `O=C(C(=O)c1ccc(Br)cc1)c1ccc(Br)cc1` [4,4'-Dibromobenzil], the cell viability is reported as 114%.
For `NS(=O)(=O)c1ccc(NC(=O)Cc2ccccc2)cc1` [4-(2-Phenylacetamido)Benzenesulfonamide], the cell viability was 103%.
`NCc1ccc(S(N)(=O)=O)cc1` [4-Homosulfanilamide] was tested, and the cell viability was 87.5%.
`Oc1ncc(F)c(O)n1` [5-fluorouracil] gave a cell viability of 91.5%.
`NCc1ccc(-c2cccnc2)s1` [(5-Pyrid-3-YLTHIEN-2-YL)METHYLAMINE] gave a cell viability of 96.1%.
Work on `CC(=O)N[C@@H](CS)C(=O)O` [Acetylcysteine] yielded a cell viability of 77.2%.
`CCCCC/C=C\C/C=C\C/C=C\C/C=C\CCCC(=O)C(F)(F)F` [Arachidonyl trifluoromethyl ketone] showed a cell viability of 104%.
`O=[As]O[As]=O` (centres undefined) [Arsenic trioxide] was tested, and the cell viability was 105%.

Same assay, conditions: 1000 nM; 72 h
In the case of `CC(=O)N1CCN(c2ccc(OC[C@@H]3CO[C@@](Cn4ccnc4)(c4ccc(Cl)cc4Cl)O3)cc2)CC1` (racemic) [Ketoconazole], the cell viability is reported as 91.8%.
`CCC(CC#N)OC(=O)N[C@@H](C)c1cccc(NC(=O)Nc2ccc(-c3cnco3)c(OC)c2)c1` (stereo in doubt) [AVN-944] was tested, and the cell viability was 10.1%.
With `OC[C@H]1OC(O)C[C@@H](O)[C@@H]1O` (some centres undefined) [2-deoxyglucose] the cell viability was 101%.
`O=C(C(=O)c1ccc(Br)cc1)c1ccc(Br)cc1` [4,4'-Dibromobenzil] was tested, and the cell viability was 100%.
With `NS(=O)(=O)c1ccc(NC(=O)Cc2ccccc2)cc1` [4-(2-Phenylacetamido)Benzenesulfonamide] the cell viability was 112%.
`NCc1ccc(S(N)(=O)=O)cc1` [4-Homosulfanilamide] showed a cell viability of 104%.
Work on `Oc1ncc(F)c(O)n1` [5-fluorouracil] yielded a cell viability of 108%.
`NCc1ccc(-c2cccnc2)s1` [(5-Pyrid-3-YLTHIEN-2-YL)METHYLAMINE] was tested, and the cell viability was 90.4%.
In the case of `CC(=O)N[C@@H](CS)C(=O)O` [Acetylcysteine], the cell viability is reported as 96.2%.
`CCCCC/C=C\C/C=C\C/C=C\C/C=C\CCCC(=O)C(F)(F)F` [Arachidonyl trifluoromethyl ketone] was tested, and the cell viability was 96.8%.
`O=[As]O[As]=O` (centres undefined) [Arsenic trioxide] gave a cell viability of 102%.

Same assay, conditions: 10000 nM; 72 h
With `CC(=O)N1CCN(c2ccc(OC[C@@H]3CO[C@@](Cn4ccnc4)(c4ccc(Cl)cc4Cl)O3)cc2)CC1` (racemic) [Ketoconazole] the cell viability was 95.8%.
In the case of `CCC(CC#N)OC(=O)N[C@@H](C)c1cccc(NC(=O)Nc2ccc(-c3cnco3)c(OC)c2)c1` (stereo in doubt) [AVN-944], the cell viability is reported as 5.46%.
`OC[C@H]1OC(O)C[C@@H](O)[C@@H]1O` (some centres undefined) [2-deoxyglucose] showed a cell viability of 99.6%.
